Reference: the supplement of paper PMC8612539
Converted amounts (≈) assume the structure as drawn.

Tested on: Escherichia coli
Assay: minimum inhibitory concentration (MIC)
Protocol: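 Broth microdilution MIC (Sensititre BOPO7F bovine plate, CLSI methods) of 19 antimicrobials against field isolates of P. multocida, M. haemolytica, H. somni (deep nasopharyngeal swabs) and E. coli, Enterococcus spp. (rectal swabs) from weaned dairy heifers. Incubation 16-24 h at 35 C. MIC is the lowest concentration preventing visible growth. Values with <= or > lie at the tested range limits. Trimethoprim-sulfamethoxazole is given as the trimethoprim component of a 1:19 mixture.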

CC1(C)S[C@@H]2[C@H](NC(=O)[C@H](N)c3ccccc3)C(=O)N2[C@H]1C(=O)O [Ampicillin]
Details | minimum inhibitory concentration [mg/L]
isolate (source animal id): 8 | 4 (≈ 11.4 µM)
isolate (source animal id): 9 | > 16
isolate (source animal id): 10 | 2 (≈ 5.72 µM)
isolate (source animal id): 11 | 4 (≈ 11.4 µM)
isolate (source animal id): 12 | > 16
isolate (source animal id): 13 | > 16
isolate (source animal id): 14 | > 16
isolate (source animal id): 15 | 2 (≈ 5.72 µM)
isolate (source animal id): 16 | 4 (≈ 11.4 µM)
isolate (source animal id): 98 | 4 (≈ 11.4 µM)
isolate (source animal id): 99 | 4 (≈ 11.4 µM)
isolate (source animal id): 100 | 2 (≈ 5.72 µM)
isolate (source animal id): 101 | 1 (≈ 2.86 µM)
isolate (source animal id): 102 | 2 (≈ 5.72 µM)
isolate (source animal id): 103 | > 16
isolate (source animal id): 104 | 4 (≈ 11.4 µM)
isolate (source animal id): 105 | 4 (≈ 11.4 µM)
isolate (source animal id): 106 | 2 (≈ 5.72 µM)
isolate (source animal id): 107 | 2 (≈ 5.72 µM)
isolate (source animal id): 108 | 4 (≈ 11.4 µM)
isolate (source animal id): 109 | 2 (≈ 5.72 µM)
isolate (source animal id): 110 | 4 (≈ 11.4 µM)
isolate (source animal id): 111 | 2 (≈ 5.72 µM)
isolate (source animal id): 112 | 2 (≈ 5.72 µM)
isolate (source animal id): 113 | 4 (≈ 11.4 µM)
isolate (source animal id): 114 | 4 (≈ 11.4 µM)
isolate (source animal id): 115 | > 16
isolate (source animal id): 116 | 2 (≈ 5.72 µM)
isolate (source animal id): 117 | 2 (≈ 5.72 µM)
isolate (source animal id): 118 | 4 (≈ 11.4 µM)
isolate (source animal id): 119 | 8 (≈ 22.9 µM)
isolate (source animal id): 120 | > 16
isolate (source animal id): 121 | 2 (≈ 5.72 µM)
isolate (source animal id): 122 | 1 (≈ 2.86 µM)
isolate (source animal id): 123 | 2 (≈ 5.72 µM)
isolate (source animal id): 124 | 4 (≈ 11.4 µM)
isolate (source animal id): 125 | 2 (≈ 5.72 µM)
isolate (source animal id): 126 | 8 (≈ 22.9 µM)
isolate (source animal id): 127 | 2 (≈ 5.72 µM)
isolate (source animal id): 128 | > 16
isolate (source animal id): 129 | 4 (≈ 11.4 µM)
isolate (source animal id): 130 | 4 (≈ 11.4 µM)
isolate (source animal id): 131 | 2 (≈ 5.72 µM)
isolate (source animal id): 132 | > 16
isolate (source animal id): 133 | 4 (≈ 11.4 µM)
isolate (source animal id): 134 | 4 (≈ 11.4 µM)
isolate (source animal id): 135 | 2 (≈ 5.72 µM)
isolate (source animal id): 136 | 4 (≈ 11.4 µM)
isolate (source animal id): 137 | 4 (≈ 11.4 µM)
isolate (source animal id): 138 | 4 (≈ 11.4 µM)
isolate (source animal id): 139 | 1 (≈ 2.86 µM)
isolate (source animal id): 140 | 4 (≈ 11.4 µM)
isolate (source animal id): 141 | 4 (≈ 11.4 µM)
isolate (source animal id): 142 | 4 (≈ 11.4 µM)
isolate (source animal id): 143 | > 16
isolate (source animal id): 144 | > 16
isolate (source animal id): 145 | 8 (≈ 22.9 µM)
isolate (source animal id): 146 | 2 (≈ 5.72 µM)
isolate (source animal id): 147 | > 16
isolate (source animal id): 148 | 2 (≈ 5.72 µM)
isolate (source animal id): 149 | 2 (≈ 5.72 µM)
isolate (source animal id): 150 | 4 (≈ 11.4 µM)
isolate (source animal id): 151 | 1 (≈ 2.86 µM)
isolate (source animal id): 152 | 2 (≈ 5.72 µM)
isolate (source animal id): 153 | > 16
isolate (source animal id): 154 | 4 (≈ 11.4 µM)
isolate (source animal id): 155 | 2 (≈ 5.72 µM)
isolate (source animal id): 156 | > 16
isolate (source animal id): 157 | 4 (≈ 11.4 µM)
isolate (source animal id): 158 | 4 (≈ 11.4 µM)
isolate (source animal id): 159 | 2 (≈ 5.72 µM)
isolate (source animal id): 160 | 4 (≈ 11.4 µM)
isolate (source animal id): 161 | 2 (≈ 5.72 µM)
isolate (source animal id): 162 | > 16
isolate (source animal id): 163 | 4 (≈ 11.4 µM)
isolate (source animal id): 164 | 4 (≈ 11.4 µM)
isolate (source animal id): 165 | 2 (≈ 5.72 µM)
isolate (source animal id): 166 | 2 (≈ 5.72 µM)
isolate (source animal id): 167 | 4 (≈ 11.4 µM)
isolate (source animal id): 168 | 2 (≈ 5.72 µM)
isolate (source animal id): 169 | 4 (≈ 11.4 µM)
isolate (source animal id): 170 | 4 (≈ 11.4 µM)
isolate (source animal id): 171 | 4 (≈ 11.4 µM)
isolate (source animal id): 172 | 2 (≈ 5.72 µM)
isolate (source animal id): 173 | > 16
isolate (source animal id): 174 | > 16
isolate (source animal id): 175 | 4 (≈ 11.4 µM)
isolate (source animal id): 176 | > 16
isolate (source animal id): 177 | > 16
isolate (source animal id): 178 | 4 (≈ 11.4 µM)
isolate (source animal id): 179 | 4 (≈ 11.4 µM)
isolate (source animal id): 180 | 4 (≈ 11.4 µM)
isolate (source animal id): 181 | 2 (≈ 5.72 µM)
isolate (source animal id): 182 | 2 (≈ 5.72 µM)
isolate (source animal id): 183 | 4 (≈ 11.4 µM)
isolate (source animal id): 184 | 4 (≈ 11.4 µM)
isolate (source animal id): 185 | 4 (≈ 11.4 µM)
isolate (source animal id): 186 | 4 (≈ 11.4 µM)
isolate (source animal id): 187 | > 16
isolate (source animal id): 188 | > 16
